# According to patent publication US20210222225A1, “Medium for Disk Diffusion Method to Evaluate Antibiotic Sensitivity” (priority 2018, published 2021):
# How the values were obtained:
# [1] = system: Pseudomonas aeruginosa ATCC27853 strain; assay: Colistin disk diffusion on modified Mueller-Hinton agar, PAE; format: cell-based
# Experimental: To each MHA thus modified was added protamine (Sigma-Aldrich, St Louis, Mo., USA) at a concentration of 100 μg/ml, and solidification was performed. Then, on a surface of the medium was evenly inoculated each of colistin-susceptible (S) or -resistant (R) Acinetobacter calcoaceticus-baumannii complex (ACB) strain, Pseudomonas aeruginosa ATCC27853 strain, Escherichia coli ATCC25922 strain, and mcr-1-harboring Enterobacter aerogenes strain, and a colistin disk was placed thereon. Subsequently, a diameter of a growth inhibition zone (colistin inhibition zone), which had been formed clear by diffusion of colistin to the agar around the colistin disk, was measured.
# As in Example 1, a concentration of agar particles (BD Diagnostic, Sparks, Md., USA) in Mueller-Hinton broth medium (BD Diagnostic) was adjusted to 17 g/L or 5.1 g/L that is 30% of 17 g/L. To select a concentration of protamine, which can enhance diffusion of colistin from a disk without interfering with bacterial growth, while using the protamine at various concentrations, protamine (Sigma-Aldrich, St Louis, Mo., USA) was added to the medium at concentrations of 1 mg/ml, 700 μg/ml, 400 μg/ml, 300 μg/ml, 200 μg/ml, 150 μg/ml, 100 μg/ml, and 50 μg/ml. Each medium thus modified was solidified. Then, on a surface of each medium was evenly inoculated each of colistin-susceptible (S) or -resistant (R) Acinetobacter calcoaceticus-baumannii complex (ACB) strain, Pseudomonas aeruginosa ATCC27853 strain, and mcr-1-harboring Enterobacter aerogenes strain, and a colistin disk was placed thereon. Then, it was determined whether each strain was grown, and a diameter of a growth inhibition zone, which had been formed around the disk, was measured.
# [2] = system: colistin-resistant strains; assay: Colistin disk diffusion, colistin-resistant strains as a group; format: cell-based
# Experimental: As in Example 1, a concentration of agar particles (BD Diagnostic, Sparks, Md., USA) in Mueller-Hinton broth medium (BD Diagnostic) was adjusted to 5.1 g/L, which is 30% of 17 g/L, and protamine (Sigma-Aldrich, St Louis, Mo., USA) was added thereto at a concentration of 150 μg/ml or 100 μg/ml. Then, solidification was performed. To compare effects depending on concentrations of agar and protamine, Muller-Hinton agar medium (BD Diagnostic) containing agar at a concentration of 17 g/L and medium obtained by adding, to the Muller-Hinton agar medium, protamine at a concentration of 100 μg/ml were prepared as controls. […] Then, it was determined whether each strain was grown, and a diameter of a growth inhibition zone, which had been formed clear around the disk, was measured. […]
# On a surface of each medium thus prepared was evenly inoculated each of colistin-susceptible (S) or -resistant (R) Acinetobacter calcoaceticus-baumannii complex (ACB) strain, Pseudomonas aeruginosa ATCC27853 strain, and mcr-1-harboring Enterobacter aerogenes strain, and a colistin disk was placed thereon. Then, it was determined whether each strain was grown, and a diameter of a colistin inhibition zone, which had been formed clear around the disk, was measured. […]
# ABA A5_R = assay: Colistin disk diffusion, guanidine hydrochloride medium, A5_R; format: cell-based, Acinetobacter baumannii; conditions: 30% agar
# Experimental: (§1) A concentration of agar particles (BD Diagnostic, Sparks, Md., USA) in Mueller-Hinton broth medium (BD Diagnostic) was adjusted to 5.1 g/L, which is 30% of 17 g/L, and guanidine hydrochloride was added to a concentration of 500 μg/ml, 50 μg/ml, or 5 μg/ml. Then, solidification was performed. On a surface of each medium thus prepared was evenly inoculated each of colistin-susceptible (S) or -resistant (R) Acinetobacter baumannii (ABA) strain, colistin-susceptible (S) or -resistant (R) Klebsiella pnemoniae (KPN) strain, and colistin-susceptible (S) or -resistant (R) Pseudomonas aeruginosa (PAE) strain, and a colistin disk was placed thereon. Then, pictures of a growth inhibition zone, which had been formed clear, around the disk were taken for each strain, and the results are illustrated in FIGS. 8 to 10.
# KPN K3007_S = assay: Colistin disk diffusion, guanidine hydrochloride medium, K3007_S; format: cell-based, Klebsiella pnemoniae; conditions: 30% agar
# Experimental: as §1
# KPN K4036_R = assay: Colistin disk diffusion, guanidine hydrochloride medium, K4036_R; format: cell-based, Klebsiella pnemoniae; conditions: 30% agar
# Experimental: as §1
# PAE P1618_R = assay: Colistin disk diffusion, guanidine hydrochloride medium, P1618_R; format: cell-based, Pseudomonas aeruginosa; conditions: 30% agar
# Experimental: as §1
# [3] = guanidine hydrochloride 5 μg/ml
# [4] = guanidine hydrochloride 50 μg/ml
# [5] = guanidine hydrochloride 500 μg/ml
substance,measurement,setting,value
colistin,Disk diffusion (mm),"[1]; 30% agar, protamine 50 μg/ml",17 mm
same,Diameter (mm) of colistin inhibition zone,"[1]; 30% agar, protamine 100 μg/ml",16 mm
same,Disk diffusion (mm),"[1]; 30% agar, protamine 100 μg/ml",18 mm
same,Disk diffusion (mm),"[1]; 30% agar, protamine 150 μg/ml",18 mm
same,Disk diffusion (mm),"[1]; 30% agar, protamine 200 μg/ml",20 mm
same,Disk diffusion (mm),"[1]; 30% agar, protamine 300 μg/ml",6 mm
same,Disk diffusion (mm),"[1]; 30% agar, protamine 400 μg/ml",6 mm
same,Disk diffusion (mm),"[1]; 30% agar, protamine 700 μg/ml",6 mm
same,Disk diffusion (mm),"[1]; 30% agar, protamine 1,000 μg/ml",6 mm
same,Diameter (mm) of colistin inhibition zone,"[1]; 40% agar, protamine 100 μg/ml",15 mm
same,Diameter (mm) of colistin inhibition zone,"[1]; 50% agar, protamine 100 μg/ml",14 mm
same,Diameter (mm) of colistin inhibition zone,"[1]; 60% agar, protamine 100 μg/ml",15 mm
same,Diameter (mm) of colistin inhibition zone,"[1]; 70% agar, protamine 100 μg/ml",14 mm
same,Diameter (mm) of colistin inhibition zone,"[1]; 80% agar, protamine 100 μg/ml",14 mm
same,Diameter (mm) of colistin inhibition zone,"[1]; 90% agar, protamine 100 μg/ml",13 mm
same,Disk diffusion (mm),"[1]; 100% agar, protamine 50 μg/ml",14 mm
same,Diameter (mm) of colistin inhibition zone,"[1]; 100% agar, protamine 100 μg/ml",13 mm
same,Disk diffusion (mm),"[1]; 100% agar, protamine 100 μg/ml",14 mm
same,Disk diffusion (mm),"[1]; 100% agar, protamine 150 μg/ml",14 mm
same,Disk diffusion (mm),"[1]; 100% agar, protamine 200 μg/ml",13 mm
same,Disk diffusion (mm),"[1]; 100% agar, protamine 300 μg/ml",14 mm
same,Disk diffusion (mm),"[1]; 100% agar, protamine 400 μg/ml",15 mm
same,Disk diffusion (mm),"[1]; 100% agar, protamine 700 μg/ml",17 mm
same,Disk diffusion (mm),"[1]; 100% agar, protamine 1,000 μg/ml",18 mm
same,size of a growth inhibition zone in the colistin-resistant strains,"[2]; agar 5.1 g/L (30%) compared with 17 g/L, FIG. 1",maintained
same,size of the growth inhibition zone in the colistin-resistant strains,"[2]; agar 5.1 g/L and protamine 100 μg/ml compared with agar 17 g/L, FIGS. 2A to 6B",no changes
same,Disk diffusion (mm),ABA A5_R; [3],10 mm
same,Disk diffusion (mm),ABA A5_R; [4],10 mm
same,Disk diffusion (mm),ABA A5_R; [5],10 mm
same,Disk diffusion (mm),KPN K3007_S; [3],17 mm
same,Disk diffusion (mm),KPN K3007_S; [4],16 mm
same,Disk diffusion (mm),KPN K3007_S; [5],16 mm
same,Disk diffusion (mm),KPN K4036_R; [3],16 mm
same,Disk diffusion (mm),KPN K4036_R; [4],16 mm
same,Disk diffusion (mm),KPN K4036_R; [5],14 mm
same,Disk diffusion (mm),PAE P1618_R; [3],12 mm
same,Disk diffusion (mm),PAE P1618_R; [4],13 mm
same,Disk diffusion (mm),PAE P1618_R; [5],13 mm
